Test results from paper PMC4674085, “Towards Prebiotic Catalytic Amyloids Using High Throughput Screening” (PLoS ONE, 2015).

Key:
[1] = Plate reader 4NPA hydrolysis kinetics of purified peptide amyloids at pH 7.3; type: biochemical; settings: 4NPA hydrolysis, pH 7.3 HEPES with zinc(II), 20 μM purified peptide; for k cat/K M: 0.1-1.0 mM 4NPA, 1% CH3CN, A400, Michaelis-Menten fit, triplicate (duplicate for 8, 27, 34, 35); for k cat/K M / k cat: per monomer peptide; for K M / k cat: Michaelis-Menten fit
Experimental: (§1) The reaction buffer consisted of the same buffer as the fibrillization buffer without ZnCl2 and with 1.33 mM 4NPA prepared from a 100 mM stock in CH3CN. The samples of the amyloid library were mixed 1:3 with the reaction buffer yielding 40 μM peptide and, when present 250 μM zinc(II). The absorbance measurements were performed in a BMG Pherastar platereader with a 400 nm band-pass filter (10 nm bandwidth) in 96-well Nunclon Delta surface plates or 384-well Greiner Bio-One non-bind black μclear plates.
The kinetics assays performed on the purified peptides were prepared similarly except that the peptide concentration was 20 μM in the reaction. Furthermore, the various substrate concentrations and replicate samples were randomly distributed over the plate to minimize systematic errors. Various 4NPA concentrations (i.e. 0.1 mM, 0.2 mM, 0.4 mM, 0.6 mM, 1.0 mM) were added from a 100 times stock so that the final CH3CN concentration was always 1%. The linear part of the hydrolysis activity was fit with an extinction coefficient of ε = 9700 M^-1cm^-1 and corrected for the background reaction rate of buffer alone (v bg = 5.0 × 10^-6 Ms^-1) to obtain the initial reaction rate v 0. The average of the initial reaction rates at each substrate concentration were then fit to the Michaelis-Menten type kinetics to obtain k cat, K M and k cat/K M always calculated per monomer peptide. The background reaction rate was obtained similarly using 5 replicates.

[2] = Activity screen of the amyloid library, 4NPA hydrolysis in plate reader (Fig 1); type: biochemical; settings: for hydrolytic activity in the screen: condition 2: pH 7.3 with ZnCl2, 40 μM crude peptide, 250 μM zinc(II), A400
Experimental: The most common assay for hydrolytic activity in enzymes is with the chromogenic substrate p-nitrophenyl acetate (4NPA). Therefore, 4NPA was chosen permitting a direct comparison of the hits from the screen with natural enzymes. Using an absorbance plate reader, we screened the activity of the amyloid library at a peptide concentration of 40 μM, fibrillized at pH 4 or 7.3 and in the presence of divalent cations (250 μM Co^2+, Cu^2+, Mg^2+, Mn^2+, Ni^2+, or Zn^2+) (Fig 1). […] Imidazole is known to catalyze 4NPA hydrolysis under these conditions via an acyl intermediate and it was used as a standard to compare the measured activity of the peptides from plate to plate.
Fig 1 Activity screens of peptide amyloids in various conditions. The hydrolysis rates of 4NPA measured for each of the peptide amyloids (in columns) are shown as a ratio to the negative control (buffer) with color-codes as indicated at the bottom of the Figure. A color code from black (rate ratio of 1.0) to light blue (1.5) to red (19) is used. Activities below the negative control are indicated with smaller disks and color-coded from light grey to black. Occasionally observed negative reaction rates are indicated by small blue disks. The peptide amyloids were tested in a total of 46 conditions of which 19 conditions are shown here (in rows). The peptides are numbered according to Table 2, including a short nomenclature highlighting only the variable residues (e.g. the peptide Ac-YVDVHVSV-CONH2 is abbreviated DHS). The conditions are sorted top-down with the highest observed activity at the top. A detailed list of the conditions tested are shown in Table B in S1 File, while below a compressed introduction to the different conditions is listed: (2) pH 7.3 with ZnCl2 (control for 33 without heating), (33) condition 2 and heated to 95°C for 1 h prior to screening, (46) condition 2 and screened in 50% DMSO, (39) condition 2 and screened with 4.75 M NaCl, (40) condition 2 and screened with 0.2 M MgCl2, (45) condition 2 and screened in 90% EtOH, (38) condition 2 and screened with 0.2 M NaCl, (30) pH 7.3 with ZnCl2 and 1 M Na2SO4, (35) pH 7.3 and screened in 4.75 M NaCl, (34) pH 7.3 and screened in 0.5 M NaCl, (37) pH 7.3 and screened in 2 M MgCl2, (27) pH 7.3 with ZnCl2 and 0.2 M MgCl2, (6) pH 7.3 with NiCl2, (4) pH 7.3 with CoCl2, (1) pH 7.3 without other additives, (41) condition 2 and screened in 2 M MgCl2, (5) pH 7.3 with CuCl2, (36) pH 7.3 and screened in 0.2 M MgCl2 and (8) pH 4.0 without other additives.
as §1
Table B: Amyloid growth and measurement conditions.
Growth = Measurement1 Growth⁄= Measurement1
Divalent2 pH3 T (◦C) Additive Divalent pH T (◦C) Additive
1. The conditions for ﬁbrillization and 4NPA assay are the same for 1-32 except that the 4NPA assay was always at 30 ◦C and the divalent concentration was one-fourth as high. For condition 33, the sample was heated to 95 ◦C for 1 hour prior to the 4NPA assay and for 34-46 the samples were ﬁbrillized in condition 1 or 2 and then transferred to the new conditions with additive just for the 4NPA assay.
2. Divalent concentration is 1 mM for growth and 250µM for 4NPA assay.
3. Grown and measured in 50 mM buﬀer: HEPES at pH 7.3, NaOAc at pH 4.0, or phthalate at pH 2.2.

[3] = X-ray fiber diffraction of aligned fibrils; type: physicochemical; settings: washed pellets dried between glass capillaries, room temperature
Experimental: The samples were centrifuged, the pellet resuspended (ultrapure water or 10 mM NaOAc pH 4) and centrifuged again. The washed pellets were resuspended in a minimal amount of water and 4 μl of the suspension were pipetted between the melted ends of two glass capillaries, which were then left to dry overnight in a sealed petri dish. The dried material was placed in an X-ray beam (Rigaku MicroMax-007HF) at room temperature for a 20 min exposure and diffraction data was collected on a Mar345 image plate detector.
Table A and associated data: Biophysical characterization of library […]
1. Fold increase in ThT ﬂuorescence over background.
2. CD spectra classiﬁed as follows: (β+) has minimum near 217 nm, (β++) has minimum near 217 nm and a maximum near 197 nm, (−) signal too weak to interpret, (?) spectra not typical of any secondary […]
3. The peak position in amide I region is given in cm−1. […]
within the typical range of stretching frequencies forβ-structure (between dashed lines at 1638 cm−1 and […]
4. (+) ﬁbrils present or (−) absent in EM micrographs.
5. Diﬀraction images recorded for the aligned ﬁbrils of 5 diﬀerent peptides (see materials and methods).

X-ray diffraction of aligned fibrils [3]	Substance	k cat/K M [1] [M⁻¹ s⁻¹]	K M [1] [µM]	k cat [1]	hydrolytic activity in the screen [2]	activity in the screen under extreme conditions ([2]; high organic solvent content (50% DMSO, 90% EtOH) or high salt (4.75 M NaCl, 1 M Na2SO4), with ZnCl2)	relative activity in the screen in 50% DMSO ([2]; condition 46: fibrillized at pH 7.3 with ZnCl2, screened in 50% DMSO, also activity above positive control (200 μM imidazole))
cross-β	Ac-YVAVHVHV-NH2 [Peptide 27, Ac-YVAVHVHV-CONH2]	4.26 ± 0.13	7200 ± 2100	3.05±0.80 10^-2s^-1	highest activity	often significant	–
–	Ac-YVDVHVDV-NH2 [Peptide 25, Ac-YVDVHVDV-CONH2]	–	–	–	–	–	increased relative activity compared to the same condition without DMSO
–	Ac-YVHVHVDV-NH2 [Peptide 21, Ac-YVHVHVDV-CONH2]	0.473 ± 0.046	1230 ± 320	0.059±0.010 10^-2s^-1	–	–	–
cross-β	Ac-YVHVHVHV-NH2 [Peptide 8, Ac-YVHVHVHV-CONH2]	2.288 ± 0.077	2390 ± 320	0.547±0.056 10^-2s^-1	highest activity	–	–
–	Ac-YVHVHVSV-NH2 [Peptide 11, Ac-YVHVHVSV-CONH2]	6.29 ± 0.52	870 ± 150	0.514±0.051 10^-2s^-1	highest activity	–	–
–	Ac-YVSVHVHV-NH2 [Peptide 9, Ac-YVSVHVHV-CONH2]	1.461 ± 0.094	3710 ± 390	0.544±0.048 10^-2s^-1	highest activity	–	–
